In ChEMBL document CHEMBL1201862, “PubChem BioAssay data set” (2004):
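Five compound concentrations were applied to cells in 96-well plates for 48 hours; endpoints were derived by simple linear interpolation of the resulting dose-response curve. At the GI50, growth is halved.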 Activity calls are given as the source filed them. Rule as the data show it: active = GI50 up to about 1.1 µM and inactive = higher.

Key:
Assay in all cases: growth of human tumour cells (NCI), 48 h
HT-29 = system: HT-29
MDA-MB-435 = system: MDA-MB-435
SK-MEL-2 = system: SK-MEL-2
OVCAR-5 = system: OVCAR-5
LOX IMVI = system: LOX IMVI
BT-549 = system: BT-549
SW-620 = system: SW-620
MDA-MB-231 = system: MDA-MB-231
NCI-H460 = system: NCI-H460
HCC 2998 = system: HCC 2998
EKVX = system: EKVX
SNB-75 = system: SNB-75
NCI-H226 = system: NCI-H226
HL-60 = system: HL-60
TK-10 = system: TK-10
Hs-578T = system: Hs-578T
SK-MEL-5 = system: SK-MEL-5
RPMI-8226 = system: RPMI-8226
SF-268 = system: SF-268

Compound | GI50 (HT-29) | GI50 (MDA-MB-435) | GI50 (SK-MEL-2) | GI50 (OVCAR-5) | GI50 (LOX IMVI) | GI50 (BT-549) | GI50 (SW-620) | GI50 (MDA-MB-231) | GI50 (NCI-H460) | GI50 (HCC 2998) | GI50 (EKVX) | GI50 (SNB-75) | GI50 (NCI-H226) | GI50 (HL-60) | GI50 (TK-10) | GI50 (Hs-578T) | GI50 (SK-MEL-5) | GI50 (RPMI-8226) | GI50 (SF-268)
O=C(CCCCCCC(=O)Nc1cccnc1)NO [PYROXAMIDE] | 3.14 µM (inactive) | 2.79 µM (inactive) | 2.72 µM (inactive) | 4.14 µM (inactive) | 7.29 µM (inactive) | > 100 µM (inactive) | 3.4 µM (inactive) | > 100 µM (inactive) | 2.82 µM (inactive) | 4.61 µM (inactive) | 47.5 µM (inactive) | 18.1 µM (inactive) | 36.3 µM (inactive) | 10.2 µM (inactive) | 7.11 µM (inactive) | 5.15 µM (inactive) | 1.21 µM (inactive) | 3.14 µM (inactive) | 4.26 µM (inactive)
CC1CCC(=O)C(C(=O)CC2CC(=O)NC(=O)C2)C1 (stereo not given) | > 100 µM (inactive) | > 100 µM (inactive) | > 100 µM (inactive) | > 100 µM (inactive) | > 100 µM (inactive) | > 100 µM (inactive) | > 100 µM (inactive) | > 100 µM (inactive) | > 100 µM (inactive) | > 100 µM (inactive) | > 100 µM (inactive) | > 100 µM (inactive) | > 100 µM (inactive) | > 100 µM (inactive) | > 100 µM (inactive) | > 100 µM (inactive) | > 100 µM (inactive) | > 100 µM (inactive) | > 100 µM (inactive)
O=C1C(Cl)=C(N2CCC[C@@H]2CO)C(=O)c2c(O)ccc(O)c21 | 2.15 µM (inactive) | 1.51 µM (inactive) | 1.57 µM (inactive) | 1.69 µM (inactive) | 1.47 µM (inactive) | 1.9 µM (inactive) | 1.4 µM (inactive) | 2.02 µM (inactive) | 1.73 µM (inactive) | 2.02 µM (inactive) | 1.87 µM (inactive) | 1.69 µM (inactive) | 1.71 µM (inactive) | 0.485 µM (active) | 1.88 µM (inactive) | 2.06 µM (inactive) | 1.01 µM (active) | 0.395 µM (active) | 1.29 µM (inactive)
Cc1cc(-c2nc3cc(F)ccc3s2)ccc1NC(=O)C(C)N (stereo not given) | 4.12 µM (inactive) | 4.81 µM (inactive) | 4.11 µM (inactive) | 1 µM (active) | 4.42 µM (inactive) | 4.24 µM (inactive) | 4.62 µM (inactive) | 3.77 µM (inactive) | 0.955 µM (active) | 0.097 µM (active) | 3.1 µM (inactive) | 5.05 µM (inactive) | > 25 µM (inactive) | 0.249 µM (active) | 0.0501 µM (active) | 4.95 µM (inactive) | 9.84 µM (inactive) | 5.89 µM (inactive) | 4.53 µM (inactive)
COc1ccc2cc(/C=N\NC(=O)Nc3ccc([N+](=O)[O-])cc3)ccc2c1 | 11.5 µM (inactive) | 14.1 µM (inactive) | 13.3 µM (inactive) | 18.5 µM (inactive) | 12 µM (inactive) | 12.7 µM (inactive) | 17.5 µM (inactive) | 13.9 µM (inactive) | 12.4 µM (inactive) | 14.2 µM (inactive) | 14 µM (inactive) | 13.2 µM (inactive) | > 10 µM (inactive) | 11 µM (inactive) | 7.96 µM (inactive) | 17.5 µM (inactive) | 11.7 µM (inactive) | 13.8 µM (inactive) | 12.8 µM (inactive)
O=C(O)[C@@H]1C[C@@H](O)CN1C(=O)OCc1ccccc1 | > 100 µM (inactive) | > 100 µM (inactive) | > 100 µM (inactive) | > 100 µM (inactive) | > 100 µM (inactive) | > 100 µM (inactive) | > 100 µM (inactive) | > 100 µM (inactive) | > 100 µM (inactive) | > 100 µM (inactive) | > 100 µM (inactive) | 1.16 µM (inactive) | > 100 µM (inactive) | > 100 µM (inactive) | > 100 µM (inactive) | > 100 µM (inactive) | > 100 µM (inactive) | > 100 µM (inactive) | > 100 µM (inactive)
O=c1c2cccnc2[nH]c2ccc3[nH]ncc3c12 | > 10 µM (inactive) | > 10 µM (inactive) | > 10 µM (inactive) | > 10 µM (inactive) | 2.91 µM (inactive) | > 10 µM (inactive) | > 10 µM (inactive) | > 10 µM (inactive) | > 10 µM (inactive) | > 10 µM (inactive) | 9.33 µM (inactive) | > 10 µM (inactive) | > 10 µM (inactive) | > 10 µM (inactive) | > 10 µM (inactive) | > 10 µM (inactive) | > 10 µM (inactive) | > 10 µM (inactive) | > 10 µM (inactive)
C=C1CC2(CCOc3ccc(Cl)cc32)OC1=O (stereo not given) | 5.86 µM (inactive) | 2.82 µM (inactive) | 1.86 µM (inactive) | 10.6 µM (inactive) | 2.44 µM (inactive) | 0.352 µM (active) | 1.26 µM (inactive) | 6.44 µM (inactive) | 3.61 µM (inactive) | 22.5 µM (inactive) | 3.42 µM (inactive) | 3.61 µM (inactive) | 2.81 µM (inactive) | 1.93 µM (inactive) | 5.77 µM (inactive) | 0.979 µM (active) | 5.02 µM (inactive) | 0.667 µM (active) | 6.22 µM (inactive)
O=C(c1ccccc1)N1OCCC1Nc1ccc(Br)cc1 (stereo not given) | 0.818 µM (active) | 0.499 µM (active) | > 10 µM (inactive) | > 10 µM (inactive) | > 10 µM (inactive) | > 10 µM (inactive) | 0.818 µM (active) | > 10 µM (inactive) | 5.45 µM (inactive) | 3.85 µM (inactive) | > 10 µM (inactive) | > 10 µM (inactive) | > 10 µM (inactive) | 3.47 µM (inactive) | > 10 µM (inactive) | > 10 µM (inactive) | 6.97 µM (inactive) | 4.71 µM (inactive) | 5.21 µM (inactive)
CCCCCCCCCCCCCCNC(=O)CCC(NC(=O)c1ccc(N(C)Cc2cnc3nc(N)nc(N)c3n2)cc1)C(=O)NCCCCCCCCCCCCCC (stereo not given) | 4.13 µM (inactive) | 0.207 µM (active) | 31 µM (inactive) | 19.2 µM (inactive) | 0.437 µM (active) | 12.3 µM (inactive) | 0.288 µM (active) | 8.73 µM (inactive) | 0.363 µM (active) | 6.01 µM (inactive) | 23.9 µM (inactive) | 14.3 µM (inactive) | > 52.1 µM (inactive) | 0.355 µM (active) | > 39.1 µM (inactive) | 8.39 µM (inactive) | 1.77 µM (inactive) | 3.07 µM (inactive) | 2.49 µM (inactive)
Cc1cc2c(cc1Cl)SC(NNC(=O)c1ccccc1)=NS2(=O)=O | > 10 µM (inactive) | > 10 µM (inactive) | > 10 µM (inactive) | > 10 µM (inactive) | > 10 µM (inactive) | > 10 µM (inactive) | > 10 µM (inactive) | > 10 µM (inactive) | > 10 µM (inactive) | > 10 µM (inactive) | > 10 µM (inactive) | > 10 µM (inactive) | > 10 µM (inactive) | > 10 µM (inactive) | > 10 µM (inactive) | > 10 µM (inactive) | > 10 µM (inactive) | > 10 µM (inactive) | > 10 µM (inactive)
O=c1c2cc([N+](=O)[O-])cnc2sn1-c1ccc(Oc2ccccc2)cc1 | 62.5 µM (inactive) | 34 µM (inactive) | 26.7 µM (inactive) | 58.3 µM (inactive) | 44.9 µM (inactive) | 52.8 µM (inactive) | 57 µM (inactive) | 22.1 µM (inactive) | 74.1 µM (inactive) | > 100 µM (inactive) | 70.6 µM (inactive) | 51.6 µM (inactive) | 45.2 µM (inactive) | 39.9 µM (inactive) | > 100 µM (inactive) | 18.6 µM (inactive) | 88.5 µM (inactive) | 41.5 µM (inactive) | 39.6 µM (inactive)
Nc1nc(=O)c2cc(NCc3ccc(C(=O)NC(CCC(=O)O)C(=O)O)cc3)ccc2[nH]1 (stereo not given) | > 100 µM (inactive) | > 100 µM (inactive) | > 100 µM (inactive) | > 100 µM (inactive) | 14.1 µM (inactive) | > 100 µM (inactive) | > 100 µM (inactive) | > 100 µM (inactive) | 50 µM (inactive) | 39.8 µM (inactive) | > 100 µM (inactive) | > 100 µM (inactive) | > 100 µM (inactive) | 21.4 µM (inactive) | > 100 µM (inactive) | > 100 µM (inactive) | > 100 µM (inactive) | > 100 µM (inactive) | 59 µM (inactive)
CC12CP(=O)(O)CC1C2(Cl)Cl (stereo not given) | > 100 µM (inactive) | > 100 µM (inactive) | > 100 µM (inactive) | > 100 µM (inactive) | > 100 µM (inactive) | > 100 µM (inactive) | > 100 µM (inactive) | > 100 µM (inactive) | > 100 µM (inactive) | > 100 µM (inactive) | > 100 µM (inactive) | > 100 µM (inactive) | > 100 µM (inactive) | > 100 µM (inactive) | > 100 µM (inactive) | > 100 µM (inactive) | > 100 µM (inactive) | > 100 µM (inactive) | > 100 µM (inactive)
OC(C#Cc1ccccc1)(c1ccccc1)c1ccccc1 | 26.7 µM (inactive) | 24.3 µM (inactive) | 23.8 µM (inactive) | 30.5 µM (inactive) | 19 µM (inactive) | 51.1 µM (inactive) | 28.4 µM (inactive) | 51.8 µM (inactive) | 20.9 µM (inactive) | 50.6 µM (inactive) | 23.8 µM (inactive) | 55.3 µM (inactive) | 26.2 µM (inactive) | 38.6 µM (inactive) | 31 µM (inactive) | 54.8 µM (inactive) | 19 µM (inactive) | 16.4 µM (inactive) | 21.4 µM (inactive)
